Literature values in patent US20180271949A1, “THERAPEUTIC TREATMENT FOR NEUROTROPHIC KERATOPATHY” (priority 2017, published 2018).

What was measured:
[1] = test system: corneal epithelium wound healing; details: with substance-P; several pre-clinical studies; Nishida 2009
decubitus ulcers = details: topical; Van Ort 1976
corneal ulcers = details: systemic administration; humans; Aynsley 1945
[2] = test system: experimentally-induced superficial skin wounds; details: topical; diabetic and non-diabetic individuals; Greenway 1999
[3] = test system: sub-basal plexus corneal nerves; details: topical; diabetic mice; Chen 2013
[4] = test system: cultured sheets of corneal epithelial cells; details: Shanley 2004
corneal abrasions = details: topical, diabetic rats

Row | Substance | promotion of corneal epithelium wound healing [1] | healing of decubitus ulcers (decubitus ulcers) | healing of corneal ulcers (corneal ulcers) | healing of experimentally-induced superficial skin wounds [2] | loss of sub-basal plexus corneal nerves [3] | cell migration and closure of artificial wounds [4] | corneal sensation (corneal abrasions; Zagon 2007) | wound healing after corneal abrasions (corneal abrasions; Zagon 2007, Klocek 2009)
1 | IGF-1: Insulin-like growth factor-1, modulator of corneal wound healing | act synergistically with substance-P |  |  |  |  |  |  | 
2 | insulin: insulin, topical, systemic or added in vitro, as used in cited literature studies |  | improve healing | improved healing | improve healing | slow the loss | promoted cell migration and closure of artificial wounds | improves corneal sensation | improves wound healing
